Experimental data published in PMC5727211, “Development of Erasin: a chromone-based STAT3 inhibitor which induces apoptosis in Erlotinib-resistant lung cancer cells” (Scientific Reports, 2017).

Key:
STAT5b SH2 domain = biological target: T1, STAT5b SH2 domain (Homo sapiens, UniProt P51692); assay: FP-based competitive binding assay, STAT5b SH2 domain; details: at 80 µM, mean ± s.d., three experiments
T1 sequence (P51692 1-787): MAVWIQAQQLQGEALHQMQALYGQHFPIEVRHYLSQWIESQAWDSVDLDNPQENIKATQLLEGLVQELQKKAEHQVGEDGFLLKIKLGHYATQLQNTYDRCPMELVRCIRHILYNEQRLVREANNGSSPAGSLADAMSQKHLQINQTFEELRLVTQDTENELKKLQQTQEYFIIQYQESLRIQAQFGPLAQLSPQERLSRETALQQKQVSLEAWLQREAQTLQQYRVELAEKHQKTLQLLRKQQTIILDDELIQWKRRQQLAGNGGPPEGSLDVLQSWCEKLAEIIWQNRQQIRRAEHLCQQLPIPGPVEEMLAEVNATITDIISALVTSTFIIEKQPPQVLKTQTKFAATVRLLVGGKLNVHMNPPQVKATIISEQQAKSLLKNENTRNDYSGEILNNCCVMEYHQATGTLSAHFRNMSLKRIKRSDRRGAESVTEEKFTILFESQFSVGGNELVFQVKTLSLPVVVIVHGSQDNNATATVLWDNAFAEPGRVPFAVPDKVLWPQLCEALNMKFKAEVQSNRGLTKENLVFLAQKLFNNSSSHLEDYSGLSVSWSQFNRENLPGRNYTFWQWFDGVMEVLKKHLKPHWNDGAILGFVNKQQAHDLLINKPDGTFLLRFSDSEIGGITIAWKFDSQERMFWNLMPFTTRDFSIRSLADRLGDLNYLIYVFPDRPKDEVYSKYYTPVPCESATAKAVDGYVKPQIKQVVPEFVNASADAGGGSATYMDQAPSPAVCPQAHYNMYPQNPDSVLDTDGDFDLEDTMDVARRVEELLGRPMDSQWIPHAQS
Method: The STAT family display a high degree of homology. […] Vilsmeyer-Haack formylation of 2-hydroxy acetophenones led to 3-formyl chromones, which were subsequently converted to the acyl hydrazones by reaction with hydrazides (Fig. 1). The target molecules were tested for their abilities to inhibit binding of fluorophore-labeled peptides to the SH2 domains of STAT1[24], STAT3[25], and STAT5b[26] in assays based on fluorescence polarization (FP). The more distantly related SH2 domain of the tyrosine kinase Lck served as additional specificity control[27],[28].
Assays were performed essentially as described. In brief, protein was incubated with the test compounds for 1 h at room temperature at the following protein concentrations: STAT1: 400 nM, STAT3: 210 nM, STAT5b: 300 nM, Lck SH2: 35 nM. Subsequently, the corresponding fluorophore-labeled peptide was added: STAT1: (5-carboxyfluorescein)-GpYDKPHVL-OH, derived from the interferon-γ receptor[24]; STAT3: (5-carboxyfluorescein)-GpYLPQTV-NH2, derived from the gp130 subunit of the IL-6 receptor[25]; STAT5b: (5-carboxyfluorescein)-GpYLVLDKW-OH, derived from the erythropoietin receptor[26]; Lck SH2: (5-carboxyfluorescein)-GpYEEIP-OH, derived from the middle-T antigen. After a further hour of incubation, fluorescence polarization was measured in a plate reader (Tecan Infinite F500). Apparent IC50 data shown in Tables 1, 2, and S1 and the inhibition curves shown in Fig. 2a correspond to this time point. The majority of the pipetting work was carried out using a Biomek FXp workstation (Beckman-Coulter). Buffer composition: 10 mM Tris pH 8.0, 50 mM NaCl, 1 mM EDTA, 1 mM dithiothreitol (DTT), 0.1% Nonidet P-40, and 2% DMSO.

[1] = system: STAT3 Tyr705 phosphorylation; assay: Western Blot, STAT3 Tyr705 phosphorylation in parental HCC-827 cells; format: cell-based, human; details: 24 h
Method: HepG2 cells were plated in 6-well plates (Corning #3516) and allowed to reach approximately 60% confluence. The medium was then replaced with serum-free medium for 24 h. Cells were subsequently pre-treated with compound or DMSO (final DMSO concentration: 0.2%) for 1 h at 37 °C, prior to stimulation for 15 min with 50 ng/mL IFNγ (Pepro Tech, for STAT1 phosphorylation), or 30 min with 50 ng/mL IL-6 (Pepro Tech, for STAT3 phosphorylation). Cells were treated with test compound or DMSO for 1 h (final DMSO concentration 0.2%). K562 cells (1.5 × 10^6 cells per well) were seeded in 6-well plates (Corning #3516) and were treated with test compound or DMSO for 1.5 h (final DMSO concentration 0.2%). […] Afterwards, cells were treated with the test compounds or DMSO (final DMSO concentration: 0.2%) for 24 h. Afterwards, the cells were washed twice with cold phosphate buffered saline (PBS). […]
Lysates were separated on a polyacrylamide gel under denaturing conditions, and transferred to a nitrocellulose membrane. STAT phosphorylation was assessed using rabbit monoclonal antibodies against the phosphorylated forms only of STAT1, STAT3 or STAT5 (Cell Signaling, 1:1000) with secondary antibody swine anti-rabbit HRP from Dako, 1:3000), followed by reblotting with rabbit monoclonal antibodies against total STAT1, STAT3 or STAT5 (Cell Signaling), and subsequently β-actin loading control. […]

MDA-MB-453 cells = assay: Apoptosis assay (Annexin V/7-AAD flow cytometry), MDA-MB-453 cells; format: cell-based, human; details: 24 h
Method: MDA-MB-453 cells (3 × 10^5 cells per well), MDA-MB-231 cells (2 × 10^5 cells per well), parental HCC-827 or Erlotinib-resistant HCC-827 cells (both 2.5 × 10^5 cells per well) were seeded in 24-well tissue culture plates (Corning #3524) and treated with test compound or DMSO (final DMSO concentration: 0.2%) for 24 h. Afterwards, the cell culture supernatant from each well was collected. Cells were washed twice with warm PBS and incubated with Accutase (BD Bioscience #561527) at 37 °C for 10 min. The supernatants were then returned to each well to neutralize the Accutase solution and the cells were centrifuged at 3000 rpm, at 4 °C for 5 min. The cell pellets were washed twice with cold PBS and centrifuged again. PE Annexin V Apoptosis Detection Kit I (BD Bioscience, 559763) was used for cell staining. Cells were resuspended in 1 x binding buffer and incubated with PE Annexin V and 7-AAD at 4 °C for 30 min. Apoptosis was measured using an LSR II flow cytometer (BD Bioscience). Experiments were carried out in at least triplicate.

| Compound | inhibition at 80 µM (STAT5b SH2 domain) [%] | STAT3 Tyr705 phosphorylation [1] | increase in rate of apoptosis relative to DMSO control (MDA-MB-453 cells) | STAT5b inhibition (STAT5b SH2 domain) |
| --- | --- | --- | --- | --- |
| CC(C)(C)c1ccc2occ(/C=N/NC(=O)c3cccnc3)c(=O)c2c1 [Compound 8] | 32 ± 2 | dose-dependent inhibitory effect | did not show an increase | – |
| CCC(C)(C)c1ccc2occ(/C=N/NC(=O)c3cccnc3)c(=O)c2c1 [Compound 9] | – | did not reduce STAT3 Tyr705 phosphorylation | did not significantly increase apoptosis | no inhibition at 80 µM |
